From patent US20030032614A1, “Method of treating respiratory distress using synthetic polynucleic acids” (priority 1995, published 2003)
Like-named read-outs stand apart in the source and are kept apart here.

Key:
heaves (equine COPD) = format: in vivo, horse
Description: According to this example, a quarter horse mare, at least 20 years of age, suffering from symptoms of heaves (equine COPD) for over ten years was treated subcutaneously twice daily with synthetic DNA. Each dose contained 0.0003 mg of poly(dA):poly(dT) synthetic DNA (Sigma) diluted in phenolated saline. […] Specifically, the horse was no longer coughing, nostrils were not flaring, and breathing was less labored. After one week of administering two doses per day, administration was reduced to once per day for two weeks, then given only on an “as needed” basis.
According to this example, a 15 year old gelding (male horse) suffering from heaves (equine COPD) for over two years was treated with synthetic DNA as described in example XXXIX.

cystic fibrosis = test: Treatment of cystic fibrosis patients with DNA drops; format: in vivo, human; conditions: person, advanced cystic fibrosis, 0.0003 mg per sublingual drop, four times daily
respiratory congestion = test: Treatment of patients with respiratory congestion (emphysema, bronchitis, upper respiratory illness, sinusitis); format: in vivo, human; conditions: middle-aged person, chronic sinusitis, one sublingual drop (0.0003 mg) four times daily
Description: A patient who suffered from emphysema and bronchitis, as diagnosed by their physician, was placed on a dose of 1 drop per day (0.0006 mg/drop) of DNA sublingually.
A person diagnosed with chronic upper respiratory illness was treated with methods according to the invention. Previous antibiotic therapy was unsuccessful in treating their condition. […] They have remained symptom free.
A nurse presented with a severe upper respiratory infection and unproductive respiratory congestion. […] Expectoration was improved and the patient's illness resolved after 4.5 days and no congestion recurred.
A person presented with chronic sinusitis. Four drops of DNA per day were administered.
A person presented with unresolved respiratory congestion. […] The patient was then prescribed four drops of DNA (0.0006 mg/drop) per day.
A person with unproductive upper respiratory congestion was placed on 4 drops of DNA (0.0006 mg/drop) per day. […] In this case, therapy was supplemented with an over-the-counter expectorant.
A person with acute and chronic respiratory disease due to exposure to toxic corrosive materials was treated with methods according to the invention. Prior to such treatment, symptoms, including chronic rhinorrhea, chest congestion and chronic respiratory infections were treated with numerous courses of antibiotics without success. […]

Row | Substance | condition of the horse (heaves (equine COPD); 15 year old gelding) | condition of the horse (heaves (equine COPD); quarter horse mare, identical treatment) | therapeutic activity after change to synthetic DNA (cystic fibrosis) | overall response (respiratory congestion) | time to improvement in condition (respiratory congestion) [h] | improvement (heaves (equine COPD); 15 year old gelding, treated as in example XXXIX) | adverse effects (heaves (equine COPD); in vivo) | condition of the horse (heaves (equine COPD); quarter horse mare, 0.0003 mg subcutaneously twice daily, thirty-six hours after treatment began)
1 | poly(dG):poly(dC) | significant improvement | significant improvement | same results | – | – | – | – | –
2 | poly(dA):poly(dT) | – | – | no decrease in therapeutic activity | improved overall response, including the absence of headaches | ≤ 48 | Improvement was noted within the first three days | no adverse effects noted | significantly improved
